In US20130225694A1, “COMPOSITIONS AND METHODS OF INHIBITING RETINAL DEGENERATION” (Oklahoma Medical Research Foundation, priority 2012, published 2013):
Like-named read-outs stand apart in the source and are kept apart here.

Tests used:
RPE65 isomerohydrolase = target: T1, RPE65 isomerohydrolase (Bos taurus, UniProt Q28175); assay: In vitro RPE65 isomerohydrolase assay with bovine RPE microsomes (Example 3); format: biochemical
T1 construct: Bovine RPE microsomes were used as a source of the RPE65 protein; from tissue; host or cells: bovine RPE microsomes
T1 sequence (Q28175 whole entry): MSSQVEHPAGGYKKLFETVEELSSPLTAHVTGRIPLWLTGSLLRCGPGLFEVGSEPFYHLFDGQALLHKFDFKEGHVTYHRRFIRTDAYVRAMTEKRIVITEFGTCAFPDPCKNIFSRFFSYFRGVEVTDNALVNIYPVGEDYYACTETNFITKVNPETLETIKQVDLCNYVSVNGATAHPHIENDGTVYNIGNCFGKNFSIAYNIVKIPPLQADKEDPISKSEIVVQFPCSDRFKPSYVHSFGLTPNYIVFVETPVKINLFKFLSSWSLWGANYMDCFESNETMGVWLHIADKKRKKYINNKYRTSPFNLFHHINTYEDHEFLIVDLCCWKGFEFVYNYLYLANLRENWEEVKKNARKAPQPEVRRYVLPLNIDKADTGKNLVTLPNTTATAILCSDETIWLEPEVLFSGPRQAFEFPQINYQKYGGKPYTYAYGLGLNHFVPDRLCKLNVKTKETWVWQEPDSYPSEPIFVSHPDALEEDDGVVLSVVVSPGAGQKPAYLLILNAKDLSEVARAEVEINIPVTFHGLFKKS
Text: In this Example, the effect of several PBN analogs on RPE65 isomerohydrolase activity was investigated in an in vitro assay. The chemical structures of the PBN analogs utilized are described herein above. Bovine RPE microsomes were used as a source of the RPE65 protein and all-trans-[^3H] retinol was a substrate for the isomerohydrolase assay. The produced 11-cis-[^3H] retinol was quantified by normal phase HPLC with flow scintillation analyzer. The inhibition of isomerohydrolase activity was dependent on the PBN analog's concentration.
FIG. 9 also illustrates the calculation of IC50 values for the two difluoro-PBN analogs. IC50 values are the concentration of the inhibitor that inhibits 50% of the enzymatic activity. Therefore, the smaller the IC50 value, the better the drug.

chicken RPE65 = target: T2, chicken RPE65 (Gallus gallus, UniProt Q9YGX2); assay: Liposome-based isomerohydrolase assay with recombinant chicken RPE65; format: biochemical
T2 construct: made in house; host or cells: 293A cells infected with chicken RPE65 adenovirus; total lysate used
T2 sequence (Q9YGX2 1-533): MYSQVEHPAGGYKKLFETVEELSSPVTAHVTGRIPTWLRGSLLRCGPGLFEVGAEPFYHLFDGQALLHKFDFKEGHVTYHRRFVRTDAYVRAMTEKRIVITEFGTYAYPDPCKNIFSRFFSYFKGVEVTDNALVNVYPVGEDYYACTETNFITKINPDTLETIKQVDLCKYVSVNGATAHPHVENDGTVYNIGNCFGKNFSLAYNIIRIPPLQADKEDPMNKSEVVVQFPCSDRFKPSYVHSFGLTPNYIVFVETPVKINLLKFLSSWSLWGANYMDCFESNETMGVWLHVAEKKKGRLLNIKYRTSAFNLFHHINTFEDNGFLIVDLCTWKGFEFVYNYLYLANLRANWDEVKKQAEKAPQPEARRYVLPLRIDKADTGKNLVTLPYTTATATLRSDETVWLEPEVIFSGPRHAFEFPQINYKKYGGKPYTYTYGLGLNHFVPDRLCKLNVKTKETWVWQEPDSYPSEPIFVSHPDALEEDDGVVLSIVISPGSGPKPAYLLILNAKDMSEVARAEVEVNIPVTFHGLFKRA

Rat Retina = assay: Light-induced retinal degeneration in rats, systemic (IP) nitrone; ERG and ONL histology; conditions: rat, in vivo
Procedure: Consistent with previous publications (1-2,5), a dose of 50 mg/kg PBN and S-PBN dissolved in saline was chosen for intraperitoneal injection in the rats in the treatment group. An equal volume of saline was injected into control rats.
A light-stress paradigm of 2,700 lux for 6 hours was used to test the effect of PBN at different time points before (0.5 hour, 3 hours, 6 hours, 12 hours, 16 hours, and 24 hours) or after (0.5 hour and 3 hours) light exposure. The effect of S-PBN was tested using the same dose and protocol of PBN at 0.5 hours before light exposure.
Electroretinography—After light exposure, rats were returned to their dim cyclic light (5-10 lux) environment for 7 days before ERG recordings were performed. Flash ERGs were recorded with the Diagnosys Espion E2 ERG System (Diagnosys, LLC, Lowell, Mass.). Rats were maintained in total darkness overnight and prepared for ERG recording under dim red light. They were anesthetized with ketamine (120 mg/kg body weight) and xylazine (6 mg/kg body weight) intramuscularly (IM). One drop of 10% (v/v) phenylephrine was applied to the cornea to dilate the pupil, and one drop of 0.5% (v/v) proparacaine HCl was applied for local anesthesia. Rats were kept on a heating pad at 37° C. during recordings. A gold electrode was placed on the cornea, a reference electrode was positioned in the mouth, and a ground electrode was placed on the foot; rats were then placed inside a Ganzfeld illuminating sphere. Responses were differentially amplified, averaged, and stored. For the assessment of rod photoreceptor function (scotopic ERG), five strobe flash stimuli were presented at flash intensities at −2.3, −1.3, 0.7, and 2.7 log cd·s/m^2. The amplitude of the a-wave was measured from the pre-stimulus baseline to the a-wave trough. The amplitude of the b-wave was measured from the trough of the a-wave to the peak of the b-wave. For the evaluation of cone function (photopic ERG), a strobe flash stimulus (3.3 log cd·s/m^2) was presented to dilated, light-adapted (5 minutes at 1.7 log cd·s/m^2) rats. The amplitude of the cone b-wave was measured from the trough of the a-wave to the peak of the b-wave.
Histology—After ERG recordings, rats were killed by carbon dioxide asphyxiation for light microscopic evaluation of retinal structure. Immediately after death, eyes were excised, placed in fixative (4% (w/v) paraformaldehyde, 2% (v/v) trichloroacetic acid, 20% (v/v) isopropyl alcohol, 2% (v/v) zinc chloride, and 72% (v/v) distilled water), and embedded in paraffin. Sections of 5 μm were cut along the vertical meridian through the optic nerve and stained with hematoxylin and eosin (H&E).
The PBN derivatives were injected intraperitoneally (IP) into albino SD rats at 50 mg/kg body weight at 0.5 hours before the start of light-damage exposure at 2,700 lux for 6 hours. After the exposure, the rats were moved to their dim cyclic room to recover for a week. Retinal damage/protection was assessed by functional analysis by ERG and structural analysis of histological sections. Dark adapted (12 hour) and Light adapted (for 2 hour) retinas were utilized as controls.

SMILES: CC(C)(C)/[N+]([O-])=C/c1ccccc1 [Compound 1, α-phenyl-N-tert-butyl nitrone]
- IC50 (RPE65 isomerohydrolase; apparent IC50, bovine RPE microsomes, all-trans-[3H] retinol substrate (Table 1), read-out: IC50 Values for the Inhibition of RPE65 Isomerohydrolase Reaction): 100 µM
- IC50 (RPE65 isomerohydrolase; in vitro RPE65 isomerohydrolase IC50 values repeated in Table 7, read-out: IC50): 100 µM
- type of inhibition (chicken RPE65; Lineweaver-Burk, with and without 0.1 mM PBN): uncompetitive inhibition
- Ki (chicken RPE65; all-trans-retinyl palmitate liposomes, 0.1 mM PBN, read-out: Ki (inhibition constant, uncompetitive formula)): 53 ± 7 µM
- % Protection (ONL, Inferior retina) (Rat Retina): 85.0%
- % Protection (ONL, Superior retina) (Rat Retina): 87.1%
- retention of photoreceptor cells (Rat Retina): approximately 90%
